The values below come from US20040121969A1, “Antiviral nucleoside derivatives” (Roche Palo Alto LLC, priority 2002, published 2004).

One series deals with Caco-2 cells. Kind of series: Caco-2 cell assay permeability. It counts as in vitro ADME, Human. The source says:
For general discussions of the Caco Assay see: S. Yee, “In Vitro Permeability Across Caco-2 Cells (Colonic) Can Predict In Vivo (Small Intestinal) Absorption in Man—Fact or Myth” Pharm. Res. 14(6):763-766 (1997) and Yamashita et. al., “Analysis of Drug Permeation Across Caco-2 Monolayer: Implication for Predicting In Vivo Drug Absorption” Pharm. Res. 14(4):486-491(1997). For specific technical aspects see: Grass, G. M. and Sweetana, S. A. “In Vitro Measurement of Gastrointestinal Tissue Permeability Using a New Diffusion Cell” Pharm. Res. 5(6):372-376 (1988); Rubas et. al., “Comparison of the Permeability Characteristics of a Human Colonic Epithelial (Caco-2) Cell Line to Colon of Rabbit, Monkey, and Dog Intestine and Human Drug Absorption” Pharm. Res. 10(1): 113-117 (1993).
High passage (108-120) Caco-2 cells are cultured in Dulbecco's Modified Eagle Media with high Glucose and L-Glutamine (DMEM) (Gibco/Life Technologies, Cat # 11965-084) supplemented with 10% Fetal Bovine Serum, 1× L-Glutamine (Gibco/Life Technologies, Cat # 25030-081) 1× Penicillin-streptomycin (Gibco/Life Technologies, Cat # 15140-122) 1× Non-essential Amino Acids, (Gibco/Life Technologies, Cat # 11140-019). Cells are maintained in T225 cm^2 Cell Culture Flask Tissue Culture Treated (Costar, Cat # 3001) at 37° C. and 5% CO2. For transport experiments, cells are plated at 7.1×10^4 cells/well into 12-well collagen-coated PTFE membrane polystyrene plates with inserts (Costar # 3493, 12 mm diameter, 0.4 um pore size, sterile, tissue culture treated). Cells are fed every 3 days and maintained at 37° C. and 5% CO2 for 21 days to allow complete formation of a polarized monolayer with tight junctions.
Prepare 5 mg/ml stock solution of test compound in DMSO and store at 4° C. Dilute desired amount of 5 mg/ml stock to 10 mL with pH 6.5 Kreb's Henseleit bicarbonate buffer to give a concentration of 100 μM. Then 1 mL of 100 μM solution was further diluted to 5 mL to make the concentration of 20 μM. This 20 μM test solution was used as initial donor dosing solution (D0). Warm drug solution(s) to 37° C. before use.
1. Prewarm buffer, working solutions, and three 12-well plates containing buffer for each plate of 12 inserts. Using a millicell®-ERS equipped with “chopstick” electrodes (Millipore, Bedford, Mass.) check the TEER. This procedure should be done when the cells are at approximately 37° C., since TEER is effected by temperature. Use only those inserts that have TEER above 300 ohms.
2. Decant media and wash each insert once with warm Kreb's-Henseleit bicarbonate buffer.
3. 0.5 mL pH 6.5 Kreb's-Henseleit buffer was added to apical side of the cell monolayers and 1.25 mL pH 7.4 Kreb's-Henseleit buffer to the basolateral chamber. The cells were equilibrated in 37° C. and 5% CO2 incubator for at least 30 minutes.
4. The apical side buffer was removed and replaced with 0.5 mL 20 μM test solutions.
5. The cells were then incubated at 37° C. and 5% CO2.
6. At 30, 60 and 90 minutes time points, the inserts were transferred to new plates which receiver sides contained 1.25 mL warm fresh pH 7.4 Kreb's-Henseleit buffer.
7. The media from all plates were collected as receiver samples.
8. After 60 min transport studies, Lucifer Yellow (0.05 mL×1000 μM) was added to the apical side of the wells. At the end of the transport studies (90 minutes), the fluorescence of the receiver side samples was measured.
Sample solutions from the donor side were collected at the end of the experiments as D90 samples. The dC/dt of test substance was calculated from sampling data at […] (assume 0 ng/mL) and 60 minutes. The apparent permeability coefficient (Papp) was calculated from the following equation, [formula] […]

For another series, the system named is human mononuclear cells. The note with it: treatment of human mononuclear cells; cited from earlier work.
For series [1] the following is noted: background statement; cited from earlier work.
The mark [2] stands for this setting: apparent permeability coefficient (Papp), apical pH 6.5 to basolateral pH 7.4, 20 μM test solution, 37° C.

Consider “2S-amino-3-methyl-butyric acid 4S-(2S-amino-3-methyl-butyryloxy)-5S-(3-carbamoyl-[1,2,4]triazol-1-yl)-2S-hydroxymethyl-tetrahydrofuran-3S-yl ester dihydrochloride [Compound 3]”, for which, in the series with Caco-2 cells (setting [2]), the Caco-2 permeability came out at 8.6 ×10⁻⁶ cm/s. With `CCC(=O)OC[C@@H]1O[C@H](n2cnc(C(N)=O)n2)[C@@H](OC(=O)CC)[C@H]1OC(=O)CC` [Compound 2, propionic acid 3S,4S-bis-propionyloxy-5S-(3-carbamoyl-[1,2,4]triazol-1-yl)-tetrahydro-furan-2S-ylmethyl ester], the Caco-2 permeability in the series with Caco-2 cells (setting [2]) came out at 7.8 ×10⁻⁶ cm/s. Turning to `CC(C)[C@H](N)C(=O)OC[C@@H]1O[C@H](n2cnc(C(N)=O)n2)[C@@H](O)[C@H]1O.Cl` [Compound 5, 2S-amino-3-methyl-butyric acid 5S-(3-carbamoyl-[1,2,4]triazol-1-yl)-3R,4S-dihydroxy-tetrahydro-furan-2S-ylmethyl ester, hydrochloride], the Caco-2 permeability in the series on Caco-2 cells (setting [2]) turned out to be 5.6 ×10⁻⁶ cm/s. Still for that read-out and setting: the result for `C[C@H](N)C(=O)OC[C@@H]1O[C@H](n2cnc(C(N)=O)n2)[C@@H](O)[C@H]1O.Cc1ccc(S(=O)(=O)O)cc1` [Compound 7, 2S-amino-propionic acid 5S-(3-carbamoyl-[1,2,4]triazol-1-yl)-3R,4S-dihydroxy-tetrahydro-furan-2S-ylmethyl ester; compound with toluene-4-sulfonic acid] reads 1.2 ×10⁻⁶ cm/s; that for `CC(C)C[C@H](N)C(=O)OC[C@@H]1O[C@H](n2cnc(C(N)=O)n2)[C@@H](O)[C@H]1O.Cc1ccc(S(=O)(=O)O)cc1` [Compound 9, 2S-amino-4-methyl-pentanoic acid 5S-(3-carbamoyl-[1,2,4]triazol-1-yl)-3R,4S-dihydroxy-tetrahydro-furan-2S-ylmethyl ester; compound with toluene-4-sulfonic acid], 0.9 ×10⁻⁶ cm/s; that for `CC[C@H](C)[C@H](N)C(=O)OC[C@@H]1O[C@H](n2cnc(C(N)=O)n2)[C@@H](O)[C@H]1O.Cc1ccc(S(=O)(=O)O)cc1` [Compound 10, 2S-amino-3S-methyl-pentanoic acid 5S-(3-carbamoyl-[1,2,4]triazol-1-yl)-3R,4S-dihydroxy-tetrahydro-furan-2S-ylmethyl ester; compound with toluene-4-sulfonic acid], 1.5 ×10⁻⁶ cm/s. Same read-out and setting: the result for `CC(C)C(=O)O[C@@H]1[C@H](OC(=O)C(C)C)[C@@H](n2cnc(C(N)=O)n2)O[C@H]1CO` [Compound 17, isobutyric acid 2S-(3-carbamoyl-[1,2,4]triazol-1-yl)-5S-hydroxymethyl-4S-isobutyryloxy-tetrahydro-furan-3S-yl ester] reads 4.8 ×10⁻⁶ cm/s.

In turn, `CC(C)[C@H](N)C(=O)N1CCC[C@H]1C(=O)OC[C@@H]1O[C@H](n2cnc(C(N)=O)n2)[C@@H](O)[C@H]1O.Cl` [Compound 18, 1-(2S-amino-3-methyl-butyryl)-pyrrolidine-2S-carboxylic acid 5S-(3-carbamoyl-[1,2,4]triazol-1-yl)-3R,4S-dihydroxy-tetrahydro-furan-2S-ylmethyl ester, hydrochloride] came in with a Caco-2 permeability in the series with Caco-2 cells (Caco-2) of 3.4 ×10⁻⁶ cm/s. Turning to `NC(=O)c1ncn([C@H]2O[C@@H](CO)[C@H](OC(=O)c3ccccc3)[C@@H]2OC(=O)c2ccccc2)n1` [Compound 28, benzoic acid 4S-benzoyloxy-5S-(3-carbamoyl-[1,2,4]triazol-1-yl)-2S-hydroxymethyl-tetrahydro-furan-3S-yl ester], the Caco-2 permeability in the series on Caco-2 cells (setting [2]) was determined as 26.6 ×10⁻⁶ cm/s.

With `CCCCCCCC(=O)OC[C@@H]1O[C@H](n2cnc(C(N)=O)n2)[C@@H](O)[C@H]1O` [Compound 34, octanoic acid 5S-(3-carbamoyl-[1,2,4]triazol-1-yl)-3R,4S-dihydroxy-tetrahydrofuran-2S-ylmethyl ester], in the series with Caco-2 cells (setting [2]), the Caco-2 permeability was 6.5 ×10⁻⁶ cm/s. `NC(=O)c1ncn([C@@H]2O[C@H](CO)[C@@H](O)[C@H]2O)n1` [Ib, ribavirin]: the “levels of IL-2, TNFα and IFNΓ” value with human mononuclear cells was “elevated levels”. As for `NC(=O)c1ncn([C@H]2O[C@@H](CO)[C@@H](O)[C@H]2O)n1` [levovirin, Levovirin], in series [1], the “dose absorbed systemically after oral administration” value is reported as “about 15%”.
